Experiments:
[1] = tested on: spiral ganglion neurons (SGNs); assay: Quantification of the density of the SGNs in Rosenthal's canal and histological analysis of cochlea slices; type: in vivo, guinea pigs
Description: The studies of examples 1 to 3 were performed on guinea pigs (250-500 g). All the animals were provided with a platinum-iridium electrode inserted into the cochlear in order to mimic a cochlear implant. The experiments were carried out in accordance with the protocol described by Raphael and collaborators (Shinohara et al., 2002, Proc. Nati. Acad. Sci. USA, 99, 1657-60).
After the final measurement of the eABR threshold, the animals were heavily anaesthetised, intraperitoneally, using sodium pentobarbital (25 mg/kg) and infused intracardially with a saline solution (37° C.), which eliminates blood, then with a cold glutaraldehyde solution (2.5% in a 0.1 M phosphate buffer), which fixes the tissues. The temporal bone was removed, then the bulla was opened to reveal the cochlea. A small window was opened in the apex of the cochlea and the membrane of the round window so as to be able to delicately wash the cochlea with the glutaraldehyde solution. The cochlea was then decalcified in a solution of EDTA (0.1 M in the phosphate buffer) so as to make it possible to make cuts. After decalcification, the cochlea was dehydrated and enclosed in “plastic JB-4” (Polyscience Inc, Warrington, Pa.). The cochlea was sectioned into slices 4 μm thick. […] The six sections of Rosenthal's channel of six slices were analysed for each group of animals (Sigma Pro Scan) so as to count the spiral ganglion neurons. […]

[2] = tested on: spiral ganglion neurons (SGNs); assay: Delayed treatment (after two weeks of artificial perilymph following neomycin): eABR thresholds; type: in vivo, guinea pigs; conditions: example 2, delayed treatment, 1 μM; from the fifth week; p<0.01 for DB
Description: The studies of examples 1 to 3 were performed on guinea pigs (250-500 g). All the animals were provided with a platinum-iridium electrode inserted into the cochlear in order to mimic a cochlear implant. The experiments were carried out in accordance with the protocol described by […] and collaborators (Shinohara et al., 2002, Proc. Nati. Acad. Sci. USA, 99, 1657-60). The procedure used was the same as in example 1, apart from the difference that, following the infusion of neomycin sulfate, the pumps were filled with artificial perilymph for two weeks. […] There was no eABR stimulation possible in the animals placed under the same conditions as defined above, but not treated by the products DA or DB.

## CC(C)CCC[C@@H](C)[C@H]1CC[C@H]2[C@@H]3C[C@@H](NCCCNCCCCN)[C@@]4(O)C[C@@H](O)CC[C@]4(C)[C@H]3CC[C@]12C [DB, 6β-[3-(4-aminobutylamino)propylamino]-cholestane-3β,5α-diol]
[1]; cochlea slices from the modiolus, axons not distinguishable in animals treated by AP
  appearance of the axons of the SGNs (histological analysis, FIG. 5): thin and long
[2]
  eABR thresholds, treated group versus control group (artificial perilymph): significant difference

## CC(C)CCC[C@@H](C)[C@H]1CC[C@H]2[C@@H]3C[C@@H](NCCc4c[nH]cn4)[C@@]4(O)C[C@@H](O)CC[C@]4(C)[C@H]3CC[C@]12C [DA, 6β-[2-(1H-imidazol-4-yl)-ethylamino]-cholestane-3β,5α-diol]
[2]
  eABR thresholds, treated group versus control group (artificial perilymph): no longer a significant difference

B1: GDNF: glia cell-line derived neurotrophic factor (protein, UniProt P39905 78-211, looked up)
Glial cell line-derived …: SPDKQMAVLPRRERNRQAAAANPENSRGKGRRGQRGKNRGCVLTAIHLNVTDLGLGYETKEELIFRYCSGSCDAAETTYDKILKNLSRNRRLVSDKVGQACCRPIAFDDDLSFLDDNLVYHILRKHSAKRCGCI
[1]; animals of example 1 (early treatment), GDNF 1 μg/ml, P<0.001
  number of SGNs compared to the control group treated with the artificial perilymph: significant difference

— US10092577B2, “Sterol derivatives for treating neurosensory hearing loss, and corresponding composition” (AFFICHEM, priority 2014, dated 2018)
